{"source": "paper PMC9728921", "about": "“Characterization of a KDM5 small molecule inhibitor with antiviral activity against hepatitis B virus” (PLOS ONE, 2022)", "key": {"KDM5C": {"target": "KDM5C (Homo sapiens, UniProt P41229)", "sequence (P41229 whole entry)": "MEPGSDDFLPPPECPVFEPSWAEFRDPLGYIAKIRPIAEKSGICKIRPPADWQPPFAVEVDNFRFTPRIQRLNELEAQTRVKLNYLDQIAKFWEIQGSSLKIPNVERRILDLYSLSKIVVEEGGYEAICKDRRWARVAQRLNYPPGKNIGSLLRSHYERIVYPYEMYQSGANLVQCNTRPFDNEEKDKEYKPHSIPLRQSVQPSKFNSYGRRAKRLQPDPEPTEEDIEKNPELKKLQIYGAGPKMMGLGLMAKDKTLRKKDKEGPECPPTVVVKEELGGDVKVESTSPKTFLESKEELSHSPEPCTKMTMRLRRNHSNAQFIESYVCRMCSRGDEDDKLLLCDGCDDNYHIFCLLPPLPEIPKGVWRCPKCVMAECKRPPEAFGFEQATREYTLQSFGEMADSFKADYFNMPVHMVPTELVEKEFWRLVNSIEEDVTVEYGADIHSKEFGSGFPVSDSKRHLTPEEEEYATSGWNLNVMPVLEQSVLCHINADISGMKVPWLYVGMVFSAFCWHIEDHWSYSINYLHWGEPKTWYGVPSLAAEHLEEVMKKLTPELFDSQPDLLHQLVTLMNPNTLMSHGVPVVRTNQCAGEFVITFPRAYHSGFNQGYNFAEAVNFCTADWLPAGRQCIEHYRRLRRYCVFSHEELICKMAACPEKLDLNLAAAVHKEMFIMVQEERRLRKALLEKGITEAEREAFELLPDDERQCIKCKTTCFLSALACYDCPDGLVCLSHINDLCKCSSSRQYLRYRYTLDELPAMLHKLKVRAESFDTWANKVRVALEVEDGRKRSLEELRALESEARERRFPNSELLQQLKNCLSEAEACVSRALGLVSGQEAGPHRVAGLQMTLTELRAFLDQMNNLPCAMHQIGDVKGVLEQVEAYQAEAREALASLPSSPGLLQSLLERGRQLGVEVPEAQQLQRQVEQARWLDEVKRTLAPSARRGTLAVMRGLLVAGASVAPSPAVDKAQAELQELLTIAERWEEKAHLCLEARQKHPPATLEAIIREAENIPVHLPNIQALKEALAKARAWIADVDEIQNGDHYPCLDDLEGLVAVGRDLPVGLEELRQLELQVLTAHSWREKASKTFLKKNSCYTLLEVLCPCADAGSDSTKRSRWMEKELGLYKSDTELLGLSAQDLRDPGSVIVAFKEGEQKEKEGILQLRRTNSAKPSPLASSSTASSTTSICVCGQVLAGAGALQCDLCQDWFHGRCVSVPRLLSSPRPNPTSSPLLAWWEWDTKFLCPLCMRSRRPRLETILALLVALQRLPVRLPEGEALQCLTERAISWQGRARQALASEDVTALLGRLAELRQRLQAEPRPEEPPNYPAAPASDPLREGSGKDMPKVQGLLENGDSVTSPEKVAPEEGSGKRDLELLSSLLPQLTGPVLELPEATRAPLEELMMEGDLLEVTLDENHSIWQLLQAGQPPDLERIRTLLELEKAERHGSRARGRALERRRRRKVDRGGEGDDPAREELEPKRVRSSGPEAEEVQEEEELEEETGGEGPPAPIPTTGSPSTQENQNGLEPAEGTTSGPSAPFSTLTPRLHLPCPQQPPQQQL", "assay": "KDM5C enzymatic assay (AlphaLISA)", "type": "biochemical", "description": "(§1) The following assay protocol was used for all histone demethylases tested except KDM1A, KDM5A, B, and D, which are described below. Compounds were serially diluted into a 384-well Alpha plate as a DMSO solution and mixed with 5 μL reaction buffer (buffer A) containing 50 mM HEPES (pH 7.0), 0.1% BSA, and 0.003% Tween-20. The enzyme of interest was pre-incubated with 15 μM of Fe^2+ for 10 min (except 30 min for KDM2B) in reaction buffer A. 5 μL of the enzyme mixture was added to each of the compound-containing wells and incubated for 10 min. The reaction was started by addition of a 5 μL mixture containing 300 nM peptide substrate, 75 μM L-ascorbic acid, and 30 μM α-ketoglutarate in buffer A. This final 15 μL of reaction mixture was incubated for 20 min for KDM5B and 1 hour for the other KDM enzymes. The reaction was quenched with 10 μL of diluted AlphaLISA Acceptor beads (1:400) in Epigenetics Buffer and incubated for 60 min. The Donor beads were diluted 1:400 into Epigenetics Buffer in the dark and 10 μL of this was added to each well and incubated for another 60 min in the dark. The assay plates were read on an Enspire plate reader (PerkinElmer) using a standard AlphaLISA program.\n(§2) Data was analyzed using GraphPad Prism 6.0 (La Jolla, CA). […] IC50 values were calculated as an average of at least two independent experiments."}, "KDM4C": {"target": "KDM4C (Homo sapiens, UniProt Q9H3R0)", "sequence (Q9H3R0 whole entry)": "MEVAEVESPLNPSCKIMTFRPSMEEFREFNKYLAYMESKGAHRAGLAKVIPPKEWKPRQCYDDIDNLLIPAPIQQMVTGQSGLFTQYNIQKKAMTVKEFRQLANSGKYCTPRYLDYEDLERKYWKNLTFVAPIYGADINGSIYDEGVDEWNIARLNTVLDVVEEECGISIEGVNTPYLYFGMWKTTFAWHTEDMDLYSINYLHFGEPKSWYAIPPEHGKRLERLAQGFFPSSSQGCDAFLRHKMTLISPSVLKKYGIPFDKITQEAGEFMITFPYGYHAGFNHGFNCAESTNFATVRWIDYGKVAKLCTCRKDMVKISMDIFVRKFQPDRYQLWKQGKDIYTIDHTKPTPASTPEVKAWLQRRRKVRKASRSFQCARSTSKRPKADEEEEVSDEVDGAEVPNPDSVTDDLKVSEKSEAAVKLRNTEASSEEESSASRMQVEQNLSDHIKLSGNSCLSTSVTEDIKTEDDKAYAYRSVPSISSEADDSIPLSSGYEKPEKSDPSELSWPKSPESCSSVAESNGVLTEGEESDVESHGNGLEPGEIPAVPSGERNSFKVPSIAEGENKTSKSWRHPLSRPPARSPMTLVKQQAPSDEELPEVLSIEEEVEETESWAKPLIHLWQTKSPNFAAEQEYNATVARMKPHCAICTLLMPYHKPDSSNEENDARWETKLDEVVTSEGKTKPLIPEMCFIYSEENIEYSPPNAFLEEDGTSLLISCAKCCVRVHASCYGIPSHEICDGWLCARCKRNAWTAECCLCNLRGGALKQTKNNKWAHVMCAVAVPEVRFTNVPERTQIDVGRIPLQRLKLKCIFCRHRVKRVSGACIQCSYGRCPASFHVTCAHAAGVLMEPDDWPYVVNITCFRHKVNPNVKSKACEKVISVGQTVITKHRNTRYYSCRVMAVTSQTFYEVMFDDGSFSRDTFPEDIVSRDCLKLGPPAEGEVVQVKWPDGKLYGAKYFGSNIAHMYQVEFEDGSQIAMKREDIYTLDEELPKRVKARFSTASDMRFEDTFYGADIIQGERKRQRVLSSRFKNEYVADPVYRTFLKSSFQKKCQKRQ", "assay": "biochemical", "description": "as §1, §2"}, "KDM2B": {"target": "T1, KDM2B (Homo sapiens, UniProt Q8NHM5)", "T1 sequence (Q8NHM5 1-1336)": "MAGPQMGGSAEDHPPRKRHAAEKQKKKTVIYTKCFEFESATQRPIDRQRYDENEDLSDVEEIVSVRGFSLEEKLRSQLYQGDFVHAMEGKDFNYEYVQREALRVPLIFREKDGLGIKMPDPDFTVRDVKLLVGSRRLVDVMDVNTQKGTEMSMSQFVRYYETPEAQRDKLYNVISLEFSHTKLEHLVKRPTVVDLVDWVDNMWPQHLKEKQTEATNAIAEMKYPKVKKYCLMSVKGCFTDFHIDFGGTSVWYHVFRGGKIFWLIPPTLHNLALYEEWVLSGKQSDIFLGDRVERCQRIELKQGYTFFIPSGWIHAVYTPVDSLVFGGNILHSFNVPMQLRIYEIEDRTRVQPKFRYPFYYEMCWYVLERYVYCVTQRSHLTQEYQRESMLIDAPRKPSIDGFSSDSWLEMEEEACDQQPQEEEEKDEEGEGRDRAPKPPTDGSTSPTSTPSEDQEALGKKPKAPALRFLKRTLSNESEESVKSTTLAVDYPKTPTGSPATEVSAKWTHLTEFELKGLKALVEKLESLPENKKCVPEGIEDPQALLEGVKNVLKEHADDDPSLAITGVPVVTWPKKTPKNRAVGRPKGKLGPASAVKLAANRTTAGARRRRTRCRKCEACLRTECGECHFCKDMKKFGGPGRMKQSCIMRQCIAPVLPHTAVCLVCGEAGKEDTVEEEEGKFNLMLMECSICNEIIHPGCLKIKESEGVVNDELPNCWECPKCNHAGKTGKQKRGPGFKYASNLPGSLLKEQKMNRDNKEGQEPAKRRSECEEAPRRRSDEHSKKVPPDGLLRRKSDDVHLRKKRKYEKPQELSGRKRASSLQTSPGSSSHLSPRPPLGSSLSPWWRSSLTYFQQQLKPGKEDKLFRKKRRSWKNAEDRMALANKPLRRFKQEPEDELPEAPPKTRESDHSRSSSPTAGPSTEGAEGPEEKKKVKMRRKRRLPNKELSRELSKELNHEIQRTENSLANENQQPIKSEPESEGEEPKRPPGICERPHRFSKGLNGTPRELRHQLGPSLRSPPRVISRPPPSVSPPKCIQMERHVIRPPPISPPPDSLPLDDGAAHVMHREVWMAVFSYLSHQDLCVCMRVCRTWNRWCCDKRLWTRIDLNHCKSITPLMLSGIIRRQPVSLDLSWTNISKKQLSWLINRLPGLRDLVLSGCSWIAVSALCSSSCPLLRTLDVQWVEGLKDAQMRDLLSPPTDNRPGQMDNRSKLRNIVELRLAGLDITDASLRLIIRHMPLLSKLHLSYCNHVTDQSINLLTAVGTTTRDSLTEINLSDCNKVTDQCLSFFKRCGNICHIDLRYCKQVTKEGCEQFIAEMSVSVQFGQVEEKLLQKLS", "assay": "KDM2B enzymatic assay (AlphaLISA)", "type": "biochemical", "description": "as §1, §2"}, "KDM3B": {"target": "KDM3B (Homo sapiens, UniProt Q7LBC6)", "sequence (Q7LBC6 whole entry)": "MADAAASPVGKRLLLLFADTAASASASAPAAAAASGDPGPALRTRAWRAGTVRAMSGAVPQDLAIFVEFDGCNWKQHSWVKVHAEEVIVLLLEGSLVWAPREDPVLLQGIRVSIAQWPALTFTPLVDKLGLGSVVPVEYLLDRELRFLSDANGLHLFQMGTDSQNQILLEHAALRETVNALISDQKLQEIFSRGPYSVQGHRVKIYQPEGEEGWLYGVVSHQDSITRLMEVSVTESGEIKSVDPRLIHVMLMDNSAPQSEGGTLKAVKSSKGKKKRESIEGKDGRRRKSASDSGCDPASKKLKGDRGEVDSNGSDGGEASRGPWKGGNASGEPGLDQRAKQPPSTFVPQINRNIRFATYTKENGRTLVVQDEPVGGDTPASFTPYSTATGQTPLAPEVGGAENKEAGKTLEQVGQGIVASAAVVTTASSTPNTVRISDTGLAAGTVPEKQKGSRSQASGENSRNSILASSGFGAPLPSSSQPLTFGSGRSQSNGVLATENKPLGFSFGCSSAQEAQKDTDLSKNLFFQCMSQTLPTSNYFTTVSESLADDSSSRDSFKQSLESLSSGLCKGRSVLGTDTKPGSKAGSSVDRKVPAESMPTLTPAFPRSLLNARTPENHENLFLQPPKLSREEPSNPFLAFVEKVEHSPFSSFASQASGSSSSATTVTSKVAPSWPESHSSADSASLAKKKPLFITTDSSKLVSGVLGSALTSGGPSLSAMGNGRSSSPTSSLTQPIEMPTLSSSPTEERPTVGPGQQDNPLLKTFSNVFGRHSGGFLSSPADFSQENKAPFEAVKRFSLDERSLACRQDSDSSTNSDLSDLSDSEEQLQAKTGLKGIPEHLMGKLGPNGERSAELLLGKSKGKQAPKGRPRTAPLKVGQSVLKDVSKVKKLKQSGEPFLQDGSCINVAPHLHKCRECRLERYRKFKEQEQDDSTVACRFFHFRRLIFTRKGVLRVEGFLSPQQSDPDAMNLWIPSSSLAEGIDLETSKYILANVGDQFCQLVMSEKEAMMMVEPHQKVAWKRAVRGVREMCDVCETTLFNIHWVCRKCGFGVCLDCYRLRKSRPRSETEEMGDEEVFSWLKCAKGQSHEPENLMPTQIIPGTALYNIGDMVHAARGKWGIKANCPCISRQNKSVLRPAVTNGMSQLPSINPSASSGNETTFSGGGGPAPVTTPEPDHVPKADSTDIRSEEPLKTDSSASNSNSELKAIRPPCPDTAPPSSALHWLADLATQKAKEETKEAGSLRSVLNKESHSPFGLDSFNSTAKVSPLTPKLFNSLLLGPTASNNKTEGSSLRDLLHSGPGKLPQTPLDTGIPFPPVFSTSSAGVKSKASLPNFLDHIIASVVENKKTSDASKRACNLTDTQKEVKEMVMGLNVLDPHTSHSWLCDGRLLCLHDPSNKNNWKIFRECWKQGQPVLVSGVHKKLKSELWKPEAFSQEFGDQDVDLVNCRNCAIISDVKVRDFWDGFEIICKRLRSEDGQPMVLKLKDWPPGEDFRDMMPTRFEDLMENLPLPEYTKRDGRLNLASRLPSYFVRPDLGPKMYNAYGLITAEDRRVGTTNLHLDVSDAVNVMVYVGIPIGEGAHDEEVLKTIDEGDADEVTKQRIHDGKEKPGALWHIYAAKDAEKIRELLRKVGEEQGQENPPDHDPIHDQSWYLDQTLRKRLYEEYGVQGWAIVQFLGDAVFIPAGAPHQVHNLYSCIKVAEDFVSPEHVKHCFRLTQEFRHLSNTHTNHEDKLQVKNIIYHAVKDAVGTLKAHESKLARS", "assay": "KDM3B enzymatic assay (AlphaLISA)", "type": "biochemical", "description": "as §1, §2"}, "DOT1L": {"target": "T2, DOT1L (Homo sapiens, UniProt Q8TEK3)", "T2 construct": "1-416; BRIC", "T2 sequence (Q8TEK3 1-416)": "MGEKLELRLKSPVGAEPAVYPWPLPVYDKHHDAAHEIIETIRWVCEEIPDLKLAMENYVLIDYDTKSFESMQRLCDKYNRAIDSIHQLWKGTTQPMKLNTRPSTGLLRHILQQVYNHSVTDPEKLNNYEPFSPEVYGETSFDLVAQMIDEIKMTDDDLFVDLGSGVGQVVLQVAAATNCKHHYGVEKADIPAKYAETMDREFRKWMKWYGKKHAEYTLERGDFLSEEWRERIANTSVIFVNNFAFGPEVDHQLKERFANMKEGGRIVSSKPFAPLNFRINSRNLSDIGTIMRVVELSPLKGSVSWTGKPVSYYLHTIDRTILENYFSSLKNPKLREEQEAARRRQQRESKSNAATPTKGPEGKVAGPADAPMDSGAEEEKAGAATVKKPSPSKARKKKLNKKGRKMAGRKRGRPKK", "assay": "Histone methyltransferase enzymatic assay, DOT1L", "type": "biochemical", "conditions": "enzyme conc. 2 nM", "description": "(§3) Histone methyltransferase assays were performed in 96-well half-area optiplates (PerkinElmer) at room temperature. All concentrations are final unless noted otherwise. Compounds were serially diluted in DMSO and the final DMSO concentration was 1%. A 24 μL reaction mixture contained compound, enzyme, 200 nM of nucleosome or histone substrate, 400 nM ^3H-SAM (83.1 Ci/mmol), 50 mM Tris-HCl (pH 8.0), 50 mM NaCl, 5 mM MgCl2, 1 mM DTT, and 0.01% Tween-20. The plate was sealed, mixed on a Titramax plate shaker at 1200 rpm for 30 sec, and incubated at room temperature for 60 min. The reaction was quenched by addition of 24 μL mixture containing 5 mg/mL PVT-PEI beads and 300 μM unlabeled SAM in water. The plate was sealed, mixed as previously noted, incubated overnight, and read on a TopCount plate reader (PerkinElmer).\nas §2"}, "SET7/9": {"target": "T3, SET7/9 (Homo sapiens, UniProt Q8WTS6)", "T3 construct": "2-366; purchased RBC (read as Reaction Biology Corporation, named)", "assay": "Histone methyltransferase enzymatic assay, SET7/9", "type": "biochemical", "conditions": "enzyme conc. 100 nM", "description": "as §3, §2"}, "GLP": {"target": "T4, GLP (Homo sapiens, UniProt Q9H9B1)", "T4 construct": "894-1298; purchased RBC (read as Reaction Biology Corporation, named)", "assay": "Histone methyltransferase enzymatic assay, GLP", "type": "biochemical", "conditions": "enzyme conc. 100 nM; read-out: IC50", "description": "as §3, §2"}, "PRMT4": {"target": "T5, PRMT4 (Homo sapiens, UniProt Q86X55)", "T5 construct": "2-608", "assay": "Histone methyltransferase enzymatic assay, PRMT4", "type": "biochemical", "conditions": "enzyme conc. 100 nM", "description": "as §3, §2"}, "EZH2/EED/SUZ12": {"target": "T6, EZH2/EED/SUZ12 (Homo sapiens, UniProt O75530+Q15022+Q15910)", "T6 construct": "2-746/2-441/2-739; purchased BPS", "assay": "Histone methyltransferase enzymatic assay, EZH2/EED/SUZ12", "type": "biochemical", "conditions": "enzyme conc. 100 nM", "description": "as §3, §2"}}}
{"smiles": "CCN(CCN(C)C)C(=O)CNCc1cc(C(=O)O)ccn1", "note": "[GS-080]", "values": [{"measurement": "Fold Selectivity Compared to KDM5A", "setting": "KDM5C; IC50 of KDM5C over KDM5A", "value": 10, "unit": "fold"}, {"measurement": "IC50", "setting": "KDM5C; enzyme concentration 1 nM", "value": 0.0037, "unit": "µM"}, {"measurement": "IC50", "setting": "KDM4C", "value": 0.0048, "unit": "µM"}, {"measurement": "Fold Selectivity Compared to KDM5A", "setting": "KDM4C; IC50 of KDM4C over KDM5A", "value": 13, "unit": "fold"}, {"measurement": "Fold Selectivity Compared to KDM5A", "setting": "KDM2B; IC50 of KDM2B over KDM5A", "value": "> 1,720 fold"}, {"measurement": "IC50", "setting": "KDM2B; enzyme concentration 2 nM", "value": 0.62, "unit": "µM"}, {"measurement": "Fold Selectivity Compared to KDM5A", "setting": "KDM3B; IC50 of KDM3B over KDM5A", "value": "> 27,800 fold"}, {"measurement": "IC50", "setting": "KDM3B; enzyme concentration 0.1 nM", "value": "> 10", "unit": "µM"}, {"measurement": "IC50", "setting": "DOT1L", "value": "> 100", "unit": "µM"}, {"measurement": "IC50", "setting": "SET7/9", "value": "> 100", "unit": "µM"}, {"measurement": "IC50", "setting": "GLP", "value": "> 100", "unit": "µM"}, {"measurement": "IC50", "setting": "PRMT4", "value": "> 100", "unit": "µM"}, {"measurement": "IC50", "setting": "EZH2/EED/SUZ12", "value": "> 100", "unit": "µM"}]}
